Laboratory results reported in patent US5972937A, “Heterocyclic compounds possessing 5HT2C receptor antagonist activity” (SmithKline Beecham p.l.c., priority 1995, dated 1999).

Tested on: MCPP-induced Hypolocomotion
Experiment: Reversal of MCPP-induced Hypolocomotion
Assay type: in vivo
Details: po, procedure of WO 94/04533, read-out: ID50 (the source's name)
Description: Reversal of MCPP-induced Hypolocomotion
Compounds were tested following the procedure outlined in WO 94/04533. The compound of example 8 has an ID50 of 10.0 mg/kg p.o.

Question: How did the ED50 turn out when CSc1cc2c(cc1C(F)(F)F)N(C(=O)Nc1cccc(C(=O)NCCN(C)C)c1)CC2 [Example 8, 5-Methylthio-6-trifluoromethyl-1-[3-[(2-dimethylaminoethyl)carbamoyl]phenylcarbamoyl]indoline] was run?
Answer: Its ED50 is 10 mg/kg.
